# Data taken from PubChem BioAssay (NCI).
#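 96-well plates; 48 h exposure; 5 concentrations. Endpoints by linear interpolation between flanking doses. Not reached: highest tested concentration assigned. TGI is the concentration that stops growth completely.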
# Tests used:
# Experiment in all cases: DTP human tumour cell line panel, 48 h
# [1] = tested on: SK-MEL-5 melanoma
# [2] = tested on: K-562 leukemia
# [3] = tested on: OVCAR-4 ovarian
# [4] = tested on: SF-295 CNS
# [5] = tested on: SF-268 CNS
# [6] = tested on: SNB-19 CNS
# [7] = tested on: SK-MEL-2 melanoma
# [8] = tested on: UACC-257 melanoma
# [9] = tested on: EKVX NSCLC
# [10] = tested on: HCT-15 colon
# [11] = tested on: SNB-75 CNS
# [12] = tested on: CAKI-1 renal
# [13] = tested on: HOP-62 NSCLC
# [14] = tested on: LOX IMVI melanoma
# [15] = tested on: MALME-3M melanoma
# [16] = tested on: NCI-H23 lung
# [17] = tested on: ACHN renal
# [18] = tested on: NCI/ADR-RES ovarian
# [19] = tested on: BT-549 breast
# [20] = tested on: MDA-MB-231 breast
Structure (SMILES),TGI [1],TGI [2],TGI [3],TGI [4],TGI [5],TGI [6],TGI [7],TGI [8],TGI [9],TGI [10],TGI [11],TGI [12],TGI [13],TGI [14],TGI [15],TGI [16],TGI [17],TGI [18],TGI [19],TGI [20]
OC1[C@H]([C@H]2CCCC[C@@H]2O)CCC[C@@H]1[C@@H]1CCCC[C@H]1O (some centres not stated),> 100 µM,> 100 µM,> 100 µM,> 100 µM,> 100 µM,> 100 µM,> 100 µM,> 100 µM,> 100 µM,> 100 µM,> 100 µM,> 100 µM,> 100 µM,> 100 µM,> 100 µM,> 100 µM,> 100 µM,,,
ON/N=C/c1cc2c(cc1Br)OCO2,> 386 µM,> 386 µM,,> 386 µM,> 386 µM,> 386 µM,> 386 µM,> 386 µM,> 386 µM,,,> 386 µM,> 386 µM,> 386 µM,> 386 µM,> 386 µM,> 386 µM,,,
COc1cc(-c2cn(S(=O)(=O)c3ccc(C)cc3)c3ccccc23)nc(-c2cn(S(=O)(=O)c3ccc(C)cc3)c3ccccc23)n1,,> 100 µM,> 100 µM,> 91.7 µM,,32.1 µM,> 100 µM,> 100 µM,> 100 µM,> 100 µM,> 100 µM,> 100 µM,> 100 µM,> 100 µM,,0.927 µM,> 100 µM,> 100 µM,> 100 µM,
N#CN=C(N)c1sc2nc3c(c(-c4ccc(Br)cc4)c2c1N)CCCC3,38.3 µM,> 100 µM,26.9 µM,58.6 µM,> 100 µM,> 100 µM,32.8 µM,> 100 µM,,44.7 µM,,42.4 µM,,41.2 µM,,66.9 µM,57 µM,80.1 µM,,70.8 µM
CCNC(C)Cc1ccccc1 (configuration not stated),> 100 µM,> 100 µM,> 100 µM,> 100 µM,> 100 µM,> 100 µM,> 100 µM,> 100 µM,> 100 µM,> 100 µM,> 100 µM,> 100 µM,> 100 µM,> 100 µM,> 100 µM,> 100 µM,> 100 µM,,,
CC(=O)OC12/C(=N/O)CCCCCC1c1ccccc12 (configuration not stated),> 100 µM,> 100 µM,> 100 µM,> 100 µM,> 100 µM,> 100 µM,> 100 µM,> 100 µM,> 100 µM,> 100 µM,> 100 µM,,> 100 µM,> 100 µM,> 100 µM,> 100 µM,> 100 µM,,,
COc1ccc(Oc2cccc(/C=C3/C(=O)Nc4ccccc43)c2)cc1,11.3 µM,7.63 µM,27 µM,19.9 µM,24.1 µM,19.1 µM,23 µM,27.8 µM,25.1 µM,21.8 µM,28.3 µM,20.9 µM,28 µM,,24.2 µM,16.2 µM,23.8 µM,17.8 µM,29.5 µM,
O=C(Nn1c(-c2ccccc2)nc2ccccc2c1=O)c1ccc(CS)cc1,> 100 µM,> 100 µM,> 100 µM,> 100 µM,> 100 µM,> 100 µM,,> 100 µM,> 100 µM,,> 100 µM,,> 100 µM,5.38 µM,> 100 µM,> 100 µM,> 100 µM,,52.8 µM,96.1 µM
CCOC(=O)c1cnn2c1ncc1c(=O)n(NC(N)=O)ccc12,> 100 µM,,> 100 µM,> 100 µM,> 100 µM,> 100 µM,> 100 µM,> 100 µM,> 100 µM,> 100 µM,> 100 µM,> 100 µM,> 100 µM,> 100 µM,> 100 µM,> 100 µM,> 100 µM,,> 100 µM,> 100 µM
Nc1sc2c(c1C(=O)c1ccc(Cl)c(Cl)c1)CCCC2,,> 100 µM,> 100 µM,> 100 µM,> 100 µM,> 100 µM,44.1 µM,> 100 µM,> 100 µM,> 100 µM,86.4 µM,> 100 µM,> 100 µM,> 100 µM,> 100 µM,> 100 µM,> 100 µM,,> 100 µM,> 100 µM
COC(=O)c1c2c(cc3c1CC1(Cc4cc5c(c(C=O)c4C1)CCCC5)C3)CCCC2 (configuration not stated),> 100 µM,85.3 µM,> 100 µM,> 100 µM,,,85.1 µM,> 100 µM,> 100 µM,> 100 µM,,,> 100 µM,> 100 µM,> 100 µM,> 100 µM,> 100 µM,> 100 µM,,> 100 µM
CCC(C)n1c(C)nc2c1C(=O)c1ccccc1C2=O (configuration not stated),> 100 µM,> 100 µM,> 100 µM,> 100 µM,> 100 µM,> 100 µM,> 100 µM,93.8 µM,> 100 µM,> 100 µM,> 100 µM,,> 100 µM,> 100 µM,77.9 µM,> 100 µM,> 100 µM,,,
CCc1ccc(N=Cc2cc(OC)c(OC)c(OC)c2)cc1,> 100 µM,73.3 µM,> 100 µM,> 100 µM,> 100 µM,> 100 µM,> 100 µM,> 100 µM,> 100 µM,> 100 µM,> 100 µM,> 100 µM,> 100 µM,> 100 µM,> 100 µM,> 100 µM,> 100 µM,,,
NCC(=O)NC1(c2cc3ccccc3s2)CCCCC1,33.2 µM,24.6 µM,> 100 µM,> 100 µM,> 100 µM,> 100 µM,,32.1 µM,> 100 µM,> 100 µM,83.7 µM,> 100 µM,> 100 µM,> 100 µM,36.3 µM,> 100 µM,56.9 µM,> 100 µM,> 100 µM,
Oc1ccc(-c2csc(NNC3=NC/C(=C/c4ccc5c(c4)OCO5)S3)n2)cc1O,> 100 µM,,> 100 µM,> 100 µM,,> 100 µM,> 100 µM,> 100 µM,> 100 µM,> 100 µM,38.9 µM,90.7 µM,> 100 µM,> 100 µM,,47.7 µM,> 100 µM,> 100 µM,,> 100 µM
Cc1ccc(S(=O)(=O)N2CCCN(S(=O)(=O)c3ccc(C)cc3)CCN(S(=O)(=O)c3ccc(C)cc3)CCCSCC2)cc1,> 100 µM,> 100 µM,> 100 µM,> 100 µM,> 100 µM,> 100 µM,> 100 µM,,> 100 µM,,> 100 µM,,> 100 µM,,,> 100 µM,> 100 µM,> 100 µM,> 100 µM,> 100 µM
CC1(C)CCC[C@@]2(C)C1CCC1(C)C(CCc3ccoc3)/C(=C/OS(=O)(=O)O)CCC12 (some centres not stated) (tested in a mixture with another compound),> 100 µM,> 100 µM,> 100 µM,> 100 µM,> 100 µM,> 100 µM,> 100 µM,> 100 µM,> 100 µM,> 100 µM,> 100 µM,> 100 µM,> 100 µM,> 100 µM,> 100 µM,> 100 µM,> 100 µM,,,
CC1CC(C)C(O)C(C2CC(CC(=O)NC3CCCCC3)CC(=O)O2)C1 (configuration not stated),> 100 µM,> 100 µM,> 100 µM,> 100 µM,> 100 µM,> 100 µM,,> 100 µM,> 100 µM,> 100 µM,> 100 µM,> 100 µM,> 100 µM,> 100 µM,> 100 µM,> 100 µM,> 100 µM,> 100 µM,,> 100 µM
O=C(/C=C/c1ccc(OCCCOc2ccc(/C=C/C(=O)c3ccccc3)cc2)cc1)c1ccccc1,> 100 µM,> 100 µM,> 100 µM,> 100 µM,> 100 µM,> 100 µM,> 100 µM,> 100 µM,> 100 µM,> 100 µM,> 100 µM,,> 100 µM,> 100 µM,> 100 µM,> 100 µM,> 100 µM,,,
CN(C)CCOc1cccc2c1C(=O)c1ccccc1C2=O,25.3 µM,33.7 µM,20.4 µM,29.3 µM,27.3 µM,66.3 µM,31.4 µM,25.8 µM,34.6 µM,27.3 µM,28.8 µM,43.8 µM,30.9 µM,18.6 µM,26.5 µM,24 µM,> 100 µM,,,
O=P1(O)C=CC2(CCCC2)O1,> 100 µM,> 100 µM,> 100 µM,> 100 µM,> 100 µM,> 100 µM,> 100 µM,> 100 µM,> 100 µM,> 100 µM,> 100 µM,,> 100 µM,> 100 µM,> 100 µM,> 100 µM,> 100 µM,> 100 µM,,
Cc1ccccc1C(=O)c1c(O)c2c(c(O)c1Br)CCCC2,35.4 µM,47.8 µM,28.9 µM,47.9 µM,29 µM,54.7 µM,31.3 µM,29.2 µM,34.3 µM,32.9 µM,34.8 µM,35.9 µM,> 100 µM,,24.7 µM,58.4 µM,31.9 µM,,,
C=CCOC(=O)N1[C@H]2C#C/C=C\C#C[C@]3(O)C(=O)C[C@H](C)[C@]24O[C@]43C2=CC(=O)C=CC21OC (some centres not stated),,> 100 µM,84.2 µM,> 100 µM,> 100 µM,> 100 µM,66.5 µM,59 µM,> 100 µM,> 100 µM,82.5 µM,> 100 µM,> 100 µM,,> 100 µM,> 100 µM,63.6 µM,> 100 µM,,85.9 µM
CC(=O)[C@@H]1[C@@H](OC(=O)CCC(C)COC2OC(CO)C(O)C(O)C2O)C[C@H]2[C@@H]3CC=C4C[C@@H](OC5OC(CO)C(OC6OC(C)C(O)C(O)C6O)C(O)C5OC5OC(C)C(O)C(O)C5O)CC[C@]4(C)[C@H]3CC[C@]12C (some centres not stated),> 100 µM,> 100 µM,> 100 µM,> 100 µM,> 100 µM,> 100 µM,> 100 µM,> 100 µM,> 100 µM,,> 100 µM,> 100 µM,> 100 µM,> 100 µM,> 100 µM,> 100 µM,> 100 µM,,> 100 µM,> 100 µM
Cc1ccc(S(=O)(=O)c2c(N)c3nc4ccccc4n3c3nc4ccccc4nc23)cc1,> 100 µM,> 100 µM,> 100 µM,> 100 µM,> 100 µM,> 100 µM,> 100 µM,> 100 µM,> 100 µM,> 100 µM,> 100 µM,> 100 µM,> 100 µM,> 100 µM,> 100 µM,> 100 µM,> 100 µM,,,
Cc1cc(N(CCC#N)CCC#N)ccc1/C=C1N=C(/C=C\c2ccccc2)OC\1=O,> 100 µM,> 100 µM,> 100 µM,> 100 µM,> 100 µM,> 100 µM,> 100 µM,> 100 µM,> 100 µM,> 100 µM,> 100 µM,> 100 µM,> 100 µM,> 100 µM,> 100 µM,> 100 µM,> 100 µM,,,
